Literature values as cited in US20260355183A1, “METHODS OF TREATING HEPATIC-ONLY METASTATIC UVEAL MELANOMA” (IDEAYA BIOSCIENCES, INC., priority 2023, published 2026).

What was measured:
[1] = test system: uveal melanoma cells harboring GNAQ mutations; conditions: by targeting PKC/ERK1/2 and PKC/NF-xB pathways; X. Wu et al., Mol. Cancer Ther. 11, 1905-1914, 2012
certain PKC isototypes = conditions: background statement
[2] = test system: ocular melanoma liver metastases; conditions: in vivo

SMILES	inhibition of growth of uveal melanoma cells harboring GNAQ mutations [1]	activity against PKC isotypes (certain PKC isototypes)	DCR [2] [%]
CN1CCN(c2nc(C3=C(c4c[nH]c5ccccc45)C(=O)NC3=O)c3ccccc3n2)CC1 [sotrastaurin]	selectively inhibit the growth of uveal melanoma cells harboring GNAQ mutations	activity against certain PKC isototypes	–
N[C@@H](Cc1ccc(N(CCCl)CCCl)cc1)C(=O)O [melphalan]	–	–	76.3
